Results from article PMC10066322 (Scientific Reports, 2023).

Target: T1, PARN1-430 (Homo sapiens, UniProt O95453)
T1 construct: expression of the C-terminal truncated protein (1-430 aa of PARN) was soluble; His tag (from the pCold I vector); made in house; host or cells: E. coli Rosetta 2 DE
T1 sequence (O95453 1-430): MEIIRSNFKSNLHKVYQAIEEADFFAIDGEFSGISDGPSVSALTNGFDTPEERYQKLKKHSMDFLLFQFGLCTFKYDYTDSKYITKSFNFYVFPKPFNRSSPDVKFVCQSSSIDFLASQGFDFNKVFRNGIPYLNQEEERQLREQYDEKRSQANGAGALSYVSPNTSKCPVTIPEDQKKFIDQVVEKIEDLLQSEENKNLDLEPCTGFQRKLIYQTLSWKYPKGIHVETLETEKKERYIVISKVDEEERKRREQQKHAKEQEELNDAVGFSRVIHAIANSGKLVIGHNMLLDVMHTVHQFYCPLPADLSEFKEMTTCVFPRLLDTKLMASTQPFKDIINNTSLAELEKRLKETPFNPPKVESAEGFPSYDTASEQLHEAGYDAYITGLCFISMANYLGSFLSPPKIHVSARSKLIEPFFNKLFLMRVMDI
Assay: Inhibition fluorescence assay (FAM-RNA / BHQ quencher deadenylase assay)
Type: biochemical
Conditions: 2.5 mM AMP, PARN1-430 73 nM
Protocol: To easily screen compounds for inhibition of PARN activity, we developed an assay in which fluorescence was used as the readout for monitoring PARN1-430’s activity (Fig. 3a). This assay was modeled on a similar assay developed for Caf1/CNOT7 deadenylase. In this assay, PARN1-430 was incubated with a 5′-fluorescently labeled oligoadenylated RNA. In the absence of deadenylation, this substrate RNA can effectively hybridize to a complementary DNA oligonucleotide with a quencher on its 3′ end leading to a loss of fluorescence (Fig. 3a). When the RNA substrate is deadenylated, the quenching oligonucleotide is no longer able to stably hybridize leading to an increase in fluorescence in the reaction.
Figure 3 Developing a fluorescence assay for PARN inhibition. (a) Cartoon depicting the inhibition fluorescence assay. Schematic diagram of the fluorescence-based deadenylase assay. The assay is based on a 5′ FAM-labelled RNA oligonucleotide substrate. After incubation of the substrate in the presence of PARN1-430, the reaction is stopped and a 3′ BHQ-labelled DNA oligonucleotide probe complementary to the RNA substrate is added. The fluorescence of intact substrate is quenched upon probe hybridization because of the proximity of the BHQ […]. In contrast, the BHQ-labelled probe cannot hybridize to the FAM-labelled reaction product allowing detection of FAM fluorescence. […] 2-way ANOVA, multiple comparisons test, average ± SD, n = 3 replicates. *P < 0.05, **P < 0.005, ***P < 0.001, ****P < 0.0001, n.s. was not indicated. […] Dotted-line represents RNA and RNA + Quencher data. One-way ANOVA, multiple comparisons test, average ± SD, n ≥ 3 replicates. *P < 0.05, **P < 0.005, ***P < 0.001, ****P < 0.0001, n.s. was not indicated. (d) PARN1-430 and PARNmut enzymatic activity measured at different time points. […] Dotted-line represents RNA and RNA + Quencher data. 2-way ANOVA, multiple comparisons test, average ± SD, n = 3 replicates. *P < 0.05, **P < 0.005, ***P < 0.001, ****P < 0.0001, n.s. was not indicated.
Quenched reaction was incubated at room temperature for 10–60 min and fluorescence was measured using Fluorescein wavelength measurement.

inhibition of PARN1-430, fluorescence assay | Compound
effectively inhibited | Nc1ncnc2c1ncn2[C@@H]1O[C@H](COP(=O)(O)O)[C@@H](O)[C@H]1O [AMP, adenosine monophosphate]

Same assay, conditions: computational docking compounds; fluorescence assay and gels; PARN1-430 pretreated with drug 10 min

PARN inhibitor in vitro | Compound
No | NC(=O)c1ncn([C@@H]2O[C@H](CO)[C@@H](O)[C@H]2O)c1N [AICAR]
No | CCn1nc(C2CCN(C(=O)CCO)CC2)nc1-c1cnc(N)c(-c2nnc(C(C)(C)C)o2)n1 [AZD8835]
Yes | Nc1nc(Cl)nc2c1ncn2[C@H]1C[C@H](O)[C@@H](CO)O1 [Cladribine]
No | Nc1nc(Cl)nc2c1ncn2[C@@H]1O[C@H](CO)[C@@H](O)[C@@H]1F [Clofarabine]
No | Nc1ncnc2c1ncn2[C@H]1O[C@@H](CO)[C@H](O)[C@@H]1O [L-adenosine]
Yes | CNC(=O)c1cnn(-c2nc(N)c3ncn([C@@H]4O[C@H](CO)[C@@H](O)[C@H]4O)c3n2)c1 [Regadenoson]
Yes | COc1nc(N)c2ncn([C@@H]3O[C@H](CO)[C@@H](O)[C@H]3O)c2n1 [Spongosine]
No | Nc1cccc(-c2cc3c(Oc4cccc(O)c4)ncnc3[nH]2)c1 [TWS119]
No | Nc1ncnc2c1ncn2[C@@H]1O[C@H](CO)[C@@H](O)[C@@H]1O [Vidarabine]

Compound | PARN inhibitor in vitro
Nc1ncnc2c1c(I)cn2C1OC(CO)C(O)C1O (stereo not shown) [5-ITU, 5-Iodotubercidin] | No
Nc1ncnc2c1c(Br)cn2[C@@H]1O[C@H](CO)[C@@H](O)[C@H]1O [5-bromotubercidine] | No
Nc1ncnc2c1ccn2[C@@H]1O[C@H](CO)[C@@H](O)[C@H]1O [Tubercidine] | Yes

Target: T2, PARN (Homo sapiens, UniProt O95453)
T2 construct: expression of the C-terminal truncated protein (1-430 aa of PARN) was soluble; His tag (from the pCold I vector); made in house; host or cells: E. coli Rosetta 2 DE
T2 sequence (O95453 1-430): T1 sequence (O95453 1-430)
Assay: High-throughput screening fluorescence assay with 8-point IC50 curves
Type: biochemical
Conditions: high-throughput screening hits; 8 points 1:3 dilution, top 100 µM
Protocol: To identify PARN inhibitors in a high-throughput manner, 24,000 compounds from the Enamine kinase library were tested in a HTS utilizing the fluorescence assay (Fig. 3a).
2 µL of protein (100 nM final concentration) (stock protein was diluted in 1× lysis buffer (HEPES KOH, pH 7.4, 30 mM, KOAc 100 mM, and Mg(OAc)2 2 mM) was added to wells using offline Multidrop Combi nL. The reaction was pre-incubated with 12.5 nL of Sygnature library (Enamine kinase library (HBL-24) (31.25 μM) for 15 min before 2 µL of RNA (10 µM) was added (DMSO was added to control wells using Echo 655). The reaction was incubated at 22 °C for 20 min in Cytomat automatic incubator. After the incubation, the reaction was quenched by adding 4 µL of quencher solution (30 µM of 3′-BHQ labeled quench DNA in 1% SDS) using Multidrop Combi nL. The quenched reaction was incubated at room temperature for 10 min and fluorescence was measured using PHERAstar FSX (λ485/520). For the counter screen, no protein was added to the reaction.
Curves were fitted within Genedata using SmartFit algorithm.

IC50 [µM] | Compound
0.2 | O=C(Nc1ncnc2c1ncn2[C@@H]1O[C@H](CO)C[C@H](F)[C@H]1O)c1ccccc1 [TH18]

Target: T1, PARN1-430
Assay: Gel assay of poly(A) RNA shortening by PARN1-430
Type: biochemical
Conditions: not given
Protocol: PARN1-430 was incubated with a fluorescently labeled RNA with a CCUUUCC sequence followed by a 9 nucleotide-long poly(A) tail and the reaction product was visualized on denaturing acrylamide gels. We observed that PARN removed the 3′ oligo(A) tail from the RNA substrate (Fig. 2c and d). […] Moreover, we observed that PARN is inhibited when treated with adenosine monophosphate (AMP), as has been reported previously.
1 µL of protein (73 nM as final concentration) (stock protein is diluted in 1× lysis buffer (HEPES KOH, pH 7.4, 30 mM, KOAc 100 mM, and Mg(Oac)2 2 mM) was added to 4 µL of 2.5× reaction buffer (Tris–HCl pH 7.4, 10 mM, KCl 50 mM, MgCl2 5 mM). If drug was added, reaction was pre-incubated with drugs for 10 min before 5 µL of RNA (5 µM as final concentration) was added. The reaction was incubated at 37 °C for 20 min. After the incubation, the reaction was either diluted with 2× loading buffer and heated to 95 °C for 5 min for gel or quenched by adding 10 µL of quencher solution (30 µM of 3′-BHQ labeled quench DNA in 1% SDS). Quenched reaction was incubated at room temperature for 10–60 min and fluorescence was measured using Fluorescein wavelength measurement.
15% TBE-Urea gel (Thermo Fisher Scientific) was prerun at 20W for 30 min. RNAs from the reaction was loaded into 15% TBE gels and run at 300 V for 35 min. The gel was visualized using iBright (Invitrogen FL1500).

inhibitory effect on PARN1-430, gel assay | Compound
inhibited | Nc1ncnc2c1ncn2[C@@H]1O[C@H](COP(=O)(O)O)[C@@H](O)[C@H]1O [AMP, adenosine monophosphate]

Same assay, conditions: 20 μM compound

Compound | inhibition of PARN on gels
O=C(Nc1ncnc2c1ncn2[C@@H]1O[C@H](CO)C[C@H](F)[C@H]1O)c1ccccc1 [TH18] | could inhibit PARN at 20 μM, except for TH18

Test system: PARN activity in Hela cells
Assay: miR-21-5p levels in Hela cells by northern blotting (PARN inhibition in cells)
Type: cell-based, human
Conditions: 10 µM, 2 days
Protocol: 48 h after transfection/drug treatment, cells were collected for either RNA or protein analysis.
Total RNA was extracted from cell lysates using TriZol as per manufacturer’s protocol and DNAse treated. After quantification on Nanodrop, total RNA was separated on an acrylamide 7 M Urea gel. RNA was transferred to a nylon membrane (Nytran SPC, GE Healthcare) using semiwet transfer. After UV/EDC crosslinking, the blot was pre-hybridized and hybridized in PerfectHyb Plus Hybridization Buffer (Sigma Aldrich) at 42 °C. Northern probes have been previously described[11],[48]. After hybridization and washing in 2 × SSC 0.1% SDS wash buffer, blots were exposed to a cassette and imaged on a Typhoon FLA 9500 Phosphoimager. Band intensities were quantified using ImageJ and normalized to the U1 levels under each condition.

Compound | PARN inhibitor in cells
O=C(Nc1ncnc2c1ncn2[C@@H]1O[C@H](CO)C[C@H](F)[C@H]1O)c1ccccc1 [TH18] | No

Target: T2, PARN
Assay: not given
Conditions: cited from earlier work

Compound | Ki [µM] | PARN inhibitor in vitro | concentration at which PARN1-430 is inhibited [mM]
O=C(Nc1ncnc2c1ncn2[C@@H]1O[C@H](CO)C[C@H](F)[C@H]1O)c1ccccc1 [A2, 9-(3′,4′, dideoxy-3′-fluoro-β-d-glucopyranosyl)-N6-benzoyl adenine] | 510 ± 52 | Yes | 
O=C(Nc1ncnc2c1ncn2[C@@H]1O[C@H](CO)C[C@H](F)[C@H]1O)c1ccccc1 [A6, 1-(3′,4′, dideoxy-3′-fluoro-β-d-glucopyranosyl)-N4-benzoyl adenine] | 210 ± 45 | Yes | 
Nc1ncnc2c1ncn2[C@@H]1O[C@H](COP(=O)(O)O)[C@@H](O)[C@H]1O [AMP, adenosine monophosphate] |  |  | > 1
OC[C@H]1OC(O)[C@H](O)[C@@H](F)[C@@H]1O (stereo partly shown) [B6] |  | Yes | 
O=c1[nH]c(=O)n([C@@H]2O[C@H](CO)[C@@H](O)[C@H](F)[C@H]2O)cc1F [FU1, 1-(3′-deoxy-3′-fluoro-β-d-glucopyranosyl) 5-fluorouracil] | 98 ± 12 | Yes | 
NC[C@H]1O[C@H](O[C@H]2[C@H](O)[C@@H](O[C@H]3O[C@H](CO)[C@@H](O)[C@H](N)[C@H]3O)[C@H](N)C[C@@H]2N)[C@H](N)[C@@H](O)[C@@H]1O [Kanamycin B] | 7.3 ± 0.4 | Yes | 
NC[C@@H]1O[C@H](O[C@H]2[C@@H](O)[C@H](O[C@@H]3[C@@H](O)[C@H](N)C[C@H](N)[C@H]3O[C@H]3O[C@H](CO)[C@@H](O)C[C@H]3N)O[C@@H]2CO)[C@H](N)[C@@H](O)[C@@H]1O[C@H]1O[C@H](CO)[C@@H](O)[C@H](O)[C@@H]1O [Lividomycin] | 18.7 ± 2.8 | Yes | 
NC[C@@H]1O[C@H](O[C@H]2[C@@H](O)[C@H](O[C@@H]3[C@@H](O)[C@H](N)C[C@H](N)[C@H]3O[C@H]3O[C@H](CN)[C@@H](O)[C@H](O)[C@H]3N)O[C@@H]2CO)[C@H](N)[C@@H](O)[C@@H]1O [Neomycin B] | 0.4 ± 0.1 | Yes | 
NC[C@@H]1O[C@H](O[C@H]2[C@@H](O)[C@H](O[C@@H]3[C@@H](O)[C@H](N)C[C@H](N)[C@H]3O[C@H]3O[C@H](CO)[C@@H](O)[C@H](O)[C@H]3N)O[C@@H]2CO)[C@H](N)[C@@H](O)[C@@H]1O [Paromomycin] | 17.3 ± 3.5 | Yes | 
Cc1cn([C@@H]2O[C@H](CO)[C@@H](O)[C@H](F)[C@H]2O)c(=O)[nH]c1=O [T1, 1-(3′-deoxy-3′-fluoro-β-d-glucopyranosyl) thymine] | 135 ± 18 | Yes | 
NC[C@H]1O[C@H](O[C@H]2[C@H](O)[C@@H](O[C@H]3O[C@H](CO)[C@@H](O)[C@H](N)[C@H]3O)[C@H](N)C[C@@H]2N)[C@H](N)C[C@@H]1O [Tobramycin] | 7.1 ± 0.2 | Yes | 
O=c1ccn([C@@H]2O[C@H](CO)[C@@H](O)[C@H](F)[C@H]2O)c(=O)[nH]1 [U1, 1-(3′-deoxy-3′-fluoro-β-d-glucopyranosyl) uracil] | 19 ± 5 | Yes | 
Kanamycin A |  | Yes | 
